Data reported in patent publication US10689378B2, “Triazolopyridine compounds and uses thereof” (Novartis AG, priority 2016, dated 2020).
Where two headings read alike, the source gives them in different places.

What was measured:
EED (1-441)-His protein = target: T1, EED (1-441)-His protein (Homo sapiens, UniProt O75530); test: EED-H3K27Me3 peptide competition binding assay by AlphaScreen
T1 construct: 30 nM EED (1-441)-His protein
Outline: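 Serially diluted compound (12 points, 3-fold) incubated 20 min with 30 nM EED(1-441)-His and 15 nM biotin-H3K27Me3(19-33) peptide in 25 mM HEPES pH 8, 0.02% Tween-20, 0.5% BSA. Ni-chelate acceptor/streptavidin donor beads (10 μg/mL each) added, 1 h rt dark; 615 nm emission normalized to controls, dose-response fit for IC50.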

[1] = tested on: H3K27 methylation in G401 cell; test: ELISA (H3K27 methylation) assay in G401 cells; format: cell-based, human; conditions: Homo sapiens
Outline: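 G401 cells treated 48 h with 3-fold dilutions (8 or 12 points, top 20 μM). Acid-extracted histones probed by ELISA for H3K27me3 or H3K27me2 with ECL readout, normalized to total H3. Percent inhibition versus DMSO fitted to dose-response curve for IC50.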

[2] = target: wild type PRC2 (wtPRC2) complex (Homo sapiens, UniProt O75530); test: EED LC-MS assay (SAH production by PRC2); format: biochemical
Description: Compounds of the present invention were assessed for their ability to inhibit PRC2 activity in a pentameric complex of EZH2, SUZ12, EED, Rbap48 and AEBP in biochemical assays. The ability of compounds of the present invention to inhibit cellular activity of PRC2 was assessed by analysing histone H3 lysine 27 methylation in human cell lines. The ability of compounds of the present invention to inhibit cancers was derived from their ability to modulate activity in human cancer cell lines bearing specific dependence to PRC2 activity to maintain cancerous growth.
Representative compounds of the present invention were serially and separately diluted 3-fold in DMSO to obtain a total of eight or twelve concentrations. Then the test compounds at each concentration (120 nL of each) were transferred by Mosquito into a 384-well Perkin Elmer ProxiPlate 384 plus plates. Solutions (6 μL) of 24 nM the wild type PRC2 (wtPRC2) complex and 2 μM SAM in reaction buffer (20 mM Tris, pH 8.0, 0.1% BSA, 0.01% Triton, 0.5 mM DTT) were added to the wells that were then incubated with the test compound for 20 min. A 6 μL solution of 3 μM of the peptide substrate H3K27Me0 (histone H3[21-44]-biotin) in reaction buffer was added to initiate each reaction. The final components in the reaction solution include 12 nM wtPRC2 complex, 1 μM SAM, and 1.5 μM H3K27me0 peptide with varying concentration of the compounds. A positive control consisted of the enzyme, 1 μM SAM and 1.5 μM substrate in the absence of the test compound, and a negative control consisted of 1 μM SAM and 1.5 μM substrate only. Each reaction was incubated at rt for 120 min, then stopped by addition of 3 μL per of quench solution (2.5% TFA with 320 nM d4-SAH). The reaction mixture was centrifuged (Eppendorf centrifuge 5810, Rotor A-4-62) for 2 min at 2000 rpm and read on an API 4000 triple quadrupole mass spec with Turbulon Spray (Applied Biosystem) coupled with Prominence UFLC (Shimadzu). The levels of SAH production were then normalized based on the values coming from the positive and negative controls to give percent enzyme activities. The data were then fit to a dose response equation using the program Helios to get the IC50 values of the test compound.

[3] = read-out: (a) IC50, EED Alphascreen binding Qualified
[4] = G-401, read-out: (c) IC50, ELISA Qualified
[5] = read-out: (b) IC50, EED LC-MS Qualified
[6] = read-out: (a) IC50 EED Alphascreen binding Qualified
[7] = G-401, read-out: (c) IC50 ELISA Qualified
[8] = read-out: (b) IC50 EED LC-MS Qualified
[9] = EED-H3K27Me3 peptide competition, AlphaScreen, read-out: (a) IC50 EED Alphascreen binding Qualified
[10] = G-401, H3K27 methylation ELISA, read-out: (c) IC50 ELISA Qualified
[11] = PRC2 LC-MS assay, read-out: (b) IC50 EED LC-MS Qualified

wild type PRC2 (wtPRC2) complex, sequence (O75530 whole entry): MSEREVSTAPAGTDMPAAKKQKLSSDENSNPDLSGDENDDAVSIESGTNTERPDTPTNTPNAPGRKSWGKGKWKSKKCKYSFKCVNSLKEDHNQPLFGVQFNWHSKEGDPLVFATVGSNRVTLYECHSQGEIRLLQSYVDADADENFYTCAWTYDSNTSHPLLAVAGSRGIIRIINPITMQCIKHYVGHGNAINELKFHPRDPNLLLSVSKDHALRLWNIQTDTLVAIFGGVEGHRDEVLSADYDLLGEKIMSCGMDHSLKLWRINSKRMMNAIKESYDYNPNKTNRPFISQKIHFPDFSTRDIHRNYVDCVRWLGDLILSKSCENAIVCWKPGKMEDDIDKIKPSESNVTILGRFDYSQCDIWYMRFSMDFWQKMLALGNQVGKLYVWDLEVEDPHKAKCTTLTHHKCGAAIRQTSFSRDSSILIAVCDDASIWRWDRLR
wild type PRC2 (wtPRC2) complex, sequence (Q15910 whole entry partner): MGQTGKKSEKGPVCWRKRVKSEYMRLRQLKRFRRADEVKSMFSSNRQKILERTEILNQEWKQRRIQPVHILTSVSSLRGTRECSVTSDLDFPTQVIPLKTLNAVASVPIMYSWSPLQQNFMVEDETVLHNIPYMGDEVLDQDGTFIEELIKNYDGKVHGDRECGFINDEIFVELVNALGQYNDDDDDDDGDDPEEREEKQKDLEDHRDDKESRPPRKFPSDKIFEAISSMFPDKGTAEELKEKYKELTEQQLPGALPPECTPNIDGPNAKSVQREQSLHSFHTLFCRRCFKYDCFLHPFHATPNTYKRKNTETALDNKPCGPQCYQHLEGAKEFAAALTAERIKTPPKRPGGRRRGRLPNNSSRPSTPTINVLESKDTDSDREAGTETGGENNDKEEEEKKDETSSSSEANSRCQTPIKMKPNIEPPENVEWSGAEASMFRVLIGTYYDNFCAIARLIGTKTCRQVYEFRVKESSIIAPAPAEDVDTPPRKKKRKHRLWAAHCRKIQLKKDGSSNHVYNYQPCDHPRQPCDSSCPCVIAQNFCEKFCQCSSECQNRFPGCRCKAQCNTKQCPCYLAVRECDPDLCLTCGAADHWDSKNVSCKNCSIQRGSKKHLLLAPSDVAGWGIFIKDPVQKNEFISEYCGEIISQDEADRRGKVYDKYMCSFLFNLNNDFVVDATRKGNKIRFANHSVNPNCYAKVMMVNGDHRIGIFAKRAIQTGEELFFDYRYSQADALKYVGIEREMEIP
wild type PRC2 (wtPRC2) complex, sequence (Q15022 whole entry partner): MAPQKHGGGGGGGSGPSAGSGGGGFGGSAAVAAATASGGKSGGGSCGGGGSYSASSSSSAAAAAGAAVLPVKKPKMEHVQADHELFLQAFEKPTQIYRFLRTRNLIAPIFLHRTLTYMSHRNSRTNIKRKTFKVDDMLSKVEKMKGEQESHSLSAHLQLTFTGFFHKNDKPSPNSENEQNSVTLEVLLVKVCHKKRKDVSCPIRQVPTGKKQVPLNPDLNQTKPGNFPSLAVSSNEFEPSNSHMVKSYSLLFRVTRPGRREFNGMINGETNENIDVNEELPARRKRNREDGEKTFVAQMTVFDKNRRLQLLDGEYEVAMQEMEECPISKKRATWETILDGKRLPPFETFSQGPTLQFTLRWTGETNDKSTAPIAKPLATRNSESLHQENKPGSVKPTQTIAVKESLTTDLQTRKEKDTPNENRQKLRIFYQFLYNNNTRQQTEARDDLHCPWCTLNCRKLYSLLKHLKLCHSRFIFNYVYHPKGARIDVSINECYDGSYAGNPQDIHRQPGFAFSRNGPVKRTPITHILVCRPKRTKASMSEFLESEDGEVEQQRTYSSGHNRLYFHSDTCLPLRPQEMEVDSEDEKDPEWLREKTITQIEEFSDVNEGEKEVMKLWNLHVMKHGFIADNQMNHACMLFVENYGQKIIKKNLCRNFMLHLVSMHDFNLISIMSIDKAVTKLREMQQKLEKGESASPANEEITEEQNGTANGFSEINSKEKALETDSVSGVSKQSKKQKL
wild type PRC2 (wtPRC2) complex, sequence (Q09028 whole entry partner): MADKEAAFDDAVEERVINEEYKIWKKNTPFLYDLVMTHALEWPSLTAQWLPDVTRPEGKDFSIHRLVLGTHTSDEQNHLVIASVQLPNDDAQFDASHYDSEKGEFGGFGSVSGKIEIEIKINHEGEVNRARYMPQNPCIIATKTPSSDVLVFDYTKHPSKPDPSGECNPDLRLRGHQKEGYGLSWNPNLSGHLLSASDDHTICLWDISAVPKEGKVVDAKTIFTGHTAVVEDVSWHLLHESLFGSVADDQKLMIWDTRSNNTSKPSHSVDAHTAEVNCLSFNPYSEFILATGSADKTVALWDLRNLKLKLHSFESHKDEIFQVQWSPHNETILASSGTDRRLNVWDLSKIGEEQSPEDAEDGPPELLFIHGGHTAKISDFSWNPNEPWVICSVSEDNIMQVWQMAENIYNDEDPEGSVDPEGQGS
wild type PRC2 (wtPRC2) complex, sequence (Q6ZN18 whole entry partner): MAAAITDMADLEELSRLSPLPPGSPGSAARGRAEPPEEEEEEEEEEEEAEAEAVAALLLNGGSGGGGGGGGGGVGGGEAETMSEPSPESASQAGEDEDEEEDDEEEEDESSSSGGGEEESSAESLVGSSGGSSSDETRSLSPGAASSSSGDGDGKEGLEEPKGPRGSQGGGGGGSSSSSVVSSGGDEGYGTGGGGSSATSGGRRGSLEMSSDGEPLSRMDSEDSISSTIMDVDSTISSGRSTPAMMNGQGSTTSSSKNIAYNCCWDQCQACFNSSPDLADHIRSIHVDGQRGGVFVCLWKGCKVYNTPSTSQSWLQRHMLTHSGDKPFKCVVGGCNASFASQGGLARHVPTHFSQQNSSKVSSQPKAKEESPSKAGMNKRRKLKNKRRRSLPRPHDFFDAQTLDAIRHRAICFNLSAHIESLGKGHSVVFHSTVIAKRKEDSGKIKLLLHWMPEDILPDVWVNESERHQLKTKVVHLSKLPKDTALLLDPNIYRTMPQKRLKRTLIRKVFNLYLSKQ
T1 sequence (O75530 whole entry): as the sequence (O75530 whole entry) above

IC50 (EED (1-441)-His protein; [3]) [nM] | IC50 [1, 4] [nM] | IC50 [2, 5] [nM] | IC50 (EED (1-441)-His protein; [9]) [nM] | IC50 [1, 10] [nM] | IC50 [2, 11] [nM] | Compound | other results
56.2 | 42.3 | 365 | – | – | – | COc1ccccc1CNc1ccc(-c2ccc(N3CCN(C)CC3)cc2)c2nncn12 [Example 22, N-(2-methoxybenzyl)-8-(4-(4-methylpiperazin-1-yl)phenyl)-[1,2,4]triazolo[4,3-a] pyridin-5-amine] | –
12.9 | 43.3 | 1010 | – | – | – | COc1ccccc1CNc1ccc(-c2ccc(C(N)=O)cc2)c2nncn12 [Example 72, 4-(5-((2-methoxybenzyl)amino)-[1,2,4]triazolo[4,3-a]pyridin-8-yl)benzamide] | –
28.2 | 73.7 | 304 | – | – | – | CCN1CCN(c2ccc(-c3ccc(NCc4ccccc4OC)n4cnnc34)cn2)CC1 [Example 69, 8-(6-(4-ethylpiperazin-1-yl)pyridin-3-yl)-N-(2-methoxybenzyl)-[1,2,4]triazolo[4,3-a] pyridin-5-amine] | –
91.5 | 374 | 3190 | – | – | – | COc1ccccc1CNc1ccc(-c2cnc(OC)c(F)c2)c2nncn12 [Example 50, 8-(5-fluoro-6-methoxypyridin-3-yl)-N-(2-methoxybenzyl)-[1,2,4]triazolo[4,3-a] pyridin-5-amine] | –
46.4 | 47.8 | 92.1 | – | – | – | COc1ccccc1CNc1ccc(-c2ccncc2)c2nncn12 [Example 24, N-(2-methoxybenzyl)-8-(pyridin-4-yl)-[1,2,4] triazolo[4,3-a]pyridin-5-amine] | –
50.1 | 102 | 2580 | – | – | – | COc1ccccc1CNc1ccc(-c2ccc(S(=O)(=O)NCCO)cc2)c2nncn12 [Example 101, N-(2-hydroxyethyl)-4-(5-((2-methoxybenzyl)amino)-[1,2,4]triazolo[4,3-a]pyridin-8-yl)benzenesulfonamide] | –
50.5 | 105 | 168 | – | – | – | COc1ccccc1CNc1ccc(-c2ccc(N3CC(C)N(C)CC3C)nc2)c2nncn12 (stereo not drawn) [Example 168, N-(2-methoxybenzyl)-8-(6-(2,4,5-trimethylpiperazin-1-yl)pyridin-3-yl)-[1,2,4] triazolo[4,3-a]pyridin-5-amine] | –
78 | 138 | 457 | – | – | – | COc1ccccc1CNc1ccc(-c2ccc(C[N+](C)(C)[O-])cc2)c2nncn12 [Example 40, 1-(4-(5-((2-methoxybenzyl)amino)-[1,2,4]triazolo[4,3-a]pyridin-8-yl)phenyl)-N,N-dimethylmethanamine oxide] | –
– | – | – | 74.5 | 85.3 | 153 | COc1cccc(F)c1CNc1ccc(-c2ccccc2CO)c2nncn12 [Example 238, (2-(5-((2-fluoro-6-methoxy benzyl)amino)-[1,2,4]triazolo[4,3-a]pyridin-8-yl)phenyl)methanol] | –

Further lines, the molecule ahead of its results:

Compound | IC50 (EED (1-441)-His protein; [3]) [nM] | IC50 [1, 4] [nM] | IC50 [2, 5] [nM] | IC50 (EED (1-441)-His protein; [9]) [nM] | IC50 [1, 10] [nM] | IC50 [2, 11] [nM] | other results
COc1cccc(F)c1CNc1ccc(-n2ccnc2)c2nncn12 [Example 363, N-(2-fluoro-6-methoxybenzyl)-8-(1H-imidazol-1-yl)-[1,2,4]triazolo[4,3-a] pyridin-5-amine] | – | – | – | – | – | – | IC50 (EED (1-441)-His protein; [6]): 25 nM; IC50 [1, 7]: 19.3 nM; IC50 [2, 8]: 55.4 nM
COc1cccc(F)c1CNc1ccc(-n2ccc(C)n2)c2nncn12 [Example 359, N-(2-fluoro-6-methoxybenzyl)-8-(3-methyl-1H-pyrazol-1-yl)-[1,2,4]triazolo [4,3-a]pyridin-5-amine] | – | – | – | – | – | – | IC50 (EED (1-441)-His protein; [6]): 42.9 nM; IC50 [1, 7]: 55.1 nM; IC50 [2, 8]: 274 nM
COc1cc(F)cc(F)c1CNc1ccc(-c2cncnc2C)c2nncn12 [Example 299, N-(2,4-difluoro-6-methoxybenzyl)-8-(4-methylpyrimidin-5-yl)-[1,2,4] triazolo[4,3-a]pyridin-5-amine] | – | – | – | 27.6 | 11.9 | 66.6 | –
COc1cc(F)cc(F)c1CNc1ccc(-c2cnc(C)cc2C(F)F)c2nncn12 [Example 317, N-(2,4-difluoro-6-methoxybenzyl)-8-(4-(difluoromethyl)-6-methylpyridin-3-yl)-[1,2,4]triazolo [4,3-a]pyridin-5-amine] | – | – | – | 35.6 | 53.2 | 218 | –
COc1cccc(Cl)c1CNc1ccc(-c2cccnc2C)c2nncn12 [Example 335, N-(2-chloro-6-methoxybenzyl)-8-(2-methylpyridin-3-yl)-[1,2,4]triazolo[4,3-a] pyridin-5-amine] | – | – | – | 84.5 | 318 | 254 | –
COc1cccc(F)c1CNc1ccc(-c2ccc(CN(C)C)cc2)c2nncn12 [Example 45, 8-(4-((dimethylamino)methyl)phenyl)-N-(2-fluoro-6-methoxybenzyl)-[1,2,4] triazolo[4,3-a]pyridin-5-amine] | 17.7 | 7.6 | 23.3 | – | – | – | –
COc1cccc(F)c1CNc1ccc(-c2cnccc2C)c2nncn12 [Example 150, N-(2-fluoro-6-methoxybenzyl)-8-(4-methylpyridin-3-yl)-[1,2,4]triazolo[4,3-a] pyridin-5-amine] | 35.6 | 14.2 | 94.8 | – | – | – | –
COc1c(F)ccc(F)c1CNc1ccc(-c2cccnc2C)c2nncn12 [Example 327, N-(3,6-difluoro-2-methoxybenzyl)-8-(2-methylpyridin-3-yl)-[1,2,4]triazolo[4,3-a] pyridin-5-amine] | – | – | – | 48.3 | 51.9 | 172 | –
COc1cccc(F)c1CNc1ccc(-c2ccncc2)c2nncn12 [Example 113, N-(2-fluoro-6-methoxybenzyl)-8-(pyridin-4-yl)-[1,2,4]triazolo[4,3-a]pyridin-5-amine] | 38.7 | 27.4 | 117 | – | – | – | –
COc1cccc(F)c1CNc1ccc(-c2cnn(C3CCNCC3)c2)c2nncn12 [Example 225, N-(2-fluoro-6-methoxybenzyl)-8-(1-(piperidin-4-yl)-1H-pyrazol-4-yl)-[1,2,4]triazolo[4,3-a]pyridin-5-amine] | – | – | – | 26.9 | 15.9 | 147 | –
COc1cccc(F)c1CNc1ccc(-c2cncc(C3=NC(C)(C)CO3)c2)c2nncn12 [Example 199, 8-(5-(4,4-dimethyl-4,5-dihydrooxazol-2-yl)pyridin-3-yl)-N-(2-fluoro-6-methoxybenzyl)-[1,2,4]triazolo[4,3-a] pyridin-5-amine] | – | – | – | 23.7 | 31.3 | 328 | –
COc1cccc(F)c1CNc1ccc(-c2ccc(S(=O)(=O)C3CCN(C)CC3)cc2)c2nncn12 [Example 133, N-(2-fluoro-6-methoxybenzyl)-8-(4-((1-methylpiperidin-4-yl)sulfonyl)phenyl)-[1,2,4]triazolo[4,3-a] pyridin-5-amine] | 5 | 5.3 | 65.8 | – | – | – | –
COc1cc(F)cc(F)c1CNc1ccc(-c2cnc(OC(C)C)nc2C)c2nncn12 [Example 349, N-(2,4-difluoro-6-methoxybenzyl)-8-(2-isopropoxy-4-methylpyrimidin-5-yl)-[1,2,4]triazolo[4,3-a]pyridin-5-amine] | – | – | – | – | – | – | IC50 (EED (1-441)-His protein; [6]): 22.9 nM; IC50 [1, 7]: 31.2 nM; IC50 [2, 8]: 291 nM
COc1cc(F)cc(F)c1CNc1ccc(-c2ccc(S(C)(=O)=O)cc2)c2nncn12 [Example 235, N-(2,4-difluoro-6-methoxybenzyl)-8-(4-(methylsulfonyl)phenyl)-[1,2,4]triazolo[4,3-a]pyridin-5-amine] | – | – | – | 68.7 | 138 | 107 | –
COc1cccc(F)c1CNc1ccc(-n2ccnn2)c2nncn12 [Example 361, N-(2-fluoro-6-methoxybenzyl)-8-(1H-1,2,3-triazol-1-yl)-[1,2,4]triazolo[4,3-a] pyridin-5-amine] | – | – | – | – | – | – | IC50 (EED (1-441)-His protein; [6]): 15.1 nM; IC50 [1, 7]: 21.1 nM; IC50 [2, 8]: 69.6 nM
